Laboratory results from PubChem BioAssay AID1963986 (Molecular Pharmacology Branch, DTP, NCI, 2024).

Tested on: 171881-019-R-J1-PDC tumor spheroid viability
Experiment: Anticancer human tumor 171881-019-R-J1-PDC patient-derived invasive breast carcinoma cell line growth inhibition [PI3K]
Conditions: spheroids with HUVEC and MSC; for IC50: curve of first compound; for viability, T/C: stronger effect = lower value
Method in brief: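 Viability of mixed-cell spheroids was determined after exposure to pairwise combinations, one partner being inavolisib, alpelisib, duvelisib or copanlisib. Highest tested concentration matched clinical Cmax where known and 10 microM where not, descending in half-log steps.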

[1] = second compound 0.0316 µM, first compound 0.000316 µM
[2] = second compound 0.0316 µM, first compound 0.001 µM
[3] = second compound 0.0316 µM, first compound 0.00316 µM
[4] = second compound 0.0316 µM, first compound 0.01 µM
[5] = second compound 0.0316 µM, first compound 0.0316 µM
[6] = second compound 0.0316 µM, first compound 0.1 µM
[7] = second compound 0.1 µM, first compound 0.000316 µM
[8] = second compound 0.1 µM, first compound 0.001 µM
[9] = second compound 0.1 µM, first compound 0.00316 µM
[10] = second compound 0.1 µM, first compound 0.01 µM
[11] = second compound 0.1 µM, first compound 0.0316 µM
[12] = second compound 0.1 µM, first compound 0.1 µM
[13] = second compound 0.316 µM, first compound 0.000316 µM
[14] = second compound 0.316 µM, first compound 0.001 µM
[15] = second compound 0.316 µM, first compound 0.00316 µM
[16] = second compound 0.316 µM, first compound 0.01 µM
[17] = second compound 0.316 µM, first compound 0.0316 µM
[18] = second compound 0.316 µM, first compound 0.1 µM
[19] = second compound 1 µM, first compound 0.000316 µM
[20] = second compound 1 µM, first compound 0.001 µM
[21] = second compound 1 µM, first compound 0.00316 µM
[22] = second compound 1 µM, first compound 0.01 µM
[23] = second compound 1 µM, first compound 0.0316 µM
[24] = second compound 1 µM, first compound 0.1 µM
[25] = second compound 3.16 µM, first compound 0.000316 µM
[26] = second compound 3.16 µM, first compound 0.001 µM
[27] = second compound 3.16 µM, first compound 0.00316 µM
[28] = second compound 3.16 µM, first compound 0.01 µM
[29] = second compound 3.16 µM, first compound 0.0316 µM
[30] = second compound 3.16 µM, first compound 0.1 µM
[31] = second compound 10 µM, first compound 0.000316 µM
[32] = second compound 10 µM, first compound 0.001 µM
[33] = second compound 10 µM, first compound 0.00316 µM
[34] = second compound 10 µM, first compound 0.01 µM
[35] = second compound 10 µM, first compound 0.0316 µM
[36] = second compound 10 µM, first compound 0.1 µM
[37] = second compound 0.0316 µM, first compound 0.316 µM
[38] = second compound 0.0316 µM, first compound 1 µM
[39] = second compound 0.0316 µM, first compound 3.16 µM
[40] = second compound 0.0316 µM, first compound 10 µM
[41] = second compound 0.1 µM, first compound 0.316 µM
[42] = second compound 0.1 µM, first compound 1 µM
[43] = second compound 0.1 µM, first compound 3.16 µM
[44] = second compound 0.1 µM, first compound 10 µM
[45] = second compound 0.316 µM, first compound 0.316 µM
[46] = second compound 0.316 µM, first compound 1 µM
[47] = second compound 0.316 µM, first compound 3.16 µM
[48] = second compound 0.316 µM, first compound 10 µM
[49] = second compound 1 µM, first compound 0.316 µM
[50] = second compound 1 µM, first compound 1 µM
[51] = second compound 1 µM, first compound 3.16 µM
[52] = second compound 1 µM, first compound 10 µM
[53] = second compound 3.16 µM, first compound 0.316 µM
[54] = second compound 3.16 µM, first compound 1 µM
[55] = second compound 3.16 µM, first compound 3.16 µM
[56] = second compound 3.16 µM, first compound 10 µM
[57] = second compound 10 µM, first compound 0.316 µM
[58] = second compound 10 µM, first compound 1 µM
[59] = second compound 10 µM, first compound 3.16 µM
[60] = second compound 10 µM, first compound 10 µM
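Further: spheroids exposed to compound for 7 days before viability read.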
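Wherever viability, T/C is given: 100% = DMSO vehicle-treated spheroids.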

## CC(=O)c1c(C)c2cnc(Nc3ccc(N4CCNCC4)cn3)nc2n(C2CCCC2)c1=O + CC(Nc1ncnc2nc[nH]c12)c1cc2cccc(Cl)c2c(=O)n1-c1ccccc1
Second compound 0.0316 µM
  IC50: > 0.1 µM
Second compound 0.1 µM
  IC50: > 0.1 µM
Second compound 0.316 µM
  IC50: > 0.1 µM
Second compound 1 µM
  IC50: > 0.1 µM
Second compound 3.16 µM
  IC50: > 0.1 µM
Second compound 10 µM
  IC50: > 0.1 µM
[1]
  viability, T/C: 91.9%
[2]
  viability, T/C: 88%
[3]
  viability, T/C: 93%
[4]
  viability, T/C: 90.6%
[5]
  viability, T/C: 102%
[6]
  viability, T/C: 92.9%
[7]
  viability, T/C: 99.9%
[8]
  viability, T/C: 96.8%
[9]
  viability, T/C: 98.3%
[10]
  viability, T/C: 91.7%
[11]
  viability, T/C: 97.6%
[12]
  viability, T/C: 88.7%
[13]
  viability, T/C: 91%
[14]
  viability, T/C: 88.5%
[15]
  viability, T/C: 96%
[16]
  viability, T/C: 107%
[17]
  viability, T/C: 106%
[18]
  viability, T/C: 87.8%
[19]
  viability, T/C: 104%
[20]
  viability, T/C: 87.6%
[21]
  viability, T/C: 100%
[22]
  viability, T/C: 94.9%
[23]
  viability, T/C: 102%
[24]
  viability, T/C: 82.2%
[25]
  viability, T/C: 94.2%
[26]
  viability, T/C: 90.3%
[27]
  viability, T/C: 91.2%
[28]
  viability, T/C: 93.2%
[29]
  viability, T/C: 103%
[30]
  viability, T/C: 79.1%
[31]
  viability, T/C: 62.4%
[32]
  viability, T/C: 60.1%
[33]
  viability, T/C: 59.1%
[34]
  viability, T/C: 63.8%
[35]
  viability, T/C: 64.9%
[36]
  viability, T/C: 56.9%

## CC(C)n1nc(-c2ccc3oc(N)nc3c2)c2c(N)ncnc21 + CC(Nc1ncnc2nc[nH]c12)c1cc2cccc(Cl)c2c(=O)n1-c1ccccc1
Second compound 0.0316 µM
  IC50: 0.0124 µM
Second compound 0.1 µM
  IC50: 0.00988 µM
Second compound 0.316 µM
  IC50: 0.0103 µM
Second compound 1 µM
  IC50: 0.00802 µM
Second compound 3.16 µM
  IC50: 0.00414 µM
Second compound 10 µM
  IC50: 0.00121 µM
[1]
  viability, T/C: 89.7%
[2]
  viability, T/C: 75.7%
[3]
  viability, T/C: 86.5%
[4]
  viability, T/C: 53.3%
[5]
  viability, T/C: 22.7%
[6]
  viability, T/C: 3.39%
[7]
  viability, T/C: 89.8%
[8]
  viability, T/C: 90.5%
[9]
  viability, T/C: 71.8%
[10]
  viability, T/C: 51.1%
[11]
  viability, T/C: 21%
[12]
  viability, T/C: 4.54%
[13]
  viability, T/C: 96.2%
[14]
  viability, T/C: 94.3%
[15]
  viability, T/C: 78.2%
[16]
  viability, T/C: 50.7%
[17]
  viability, T/C: 20.4%
[18]
  viability, T/C: 3.31%
[19]
  viability, T/C: 93.1%
[20]
  viability, T/C: 89.3%
[21]
  viability, T/C: 67.4%
[22]
  viability, T/C: 47.3%
[23]
  viability, T/C: 18.5%
[24]
  viability, T/C: 3.26%
[25]
  viability, T/C: 84.5%
[26]
  viability, T/C: 71.8%
[27]
  viability, T/C: 53.8%
[28]
  viability, T/C: 37%
[29]
  viability, T/C: 13.3%
[30]
  viability, T/C: 3.36%
[31]
  viability, T/C: 55.8%
[32]
  viability, T/C: 52.1%
[33]
  viability, T/C: 40%
[34]
  viability, T/C: 22.2%
[35]
  viability, T/C: 7.46%
[36]
  viability, T/C: 3.13%

## CCCS(=O)(=O)Nc1ccc(F)c(C(=O)c2c[nH]c3ncc(-c4ccc(Cl)cc4)cc23)c1F + CC(Nc1ncnc2nc[nH]c12)c1cc2cccc(Cl)c2c(=O)n1-c1ccccc1
Second compound 0.0316 µM
  IC50: 5.73 µM
Second compound 0.1 µM
  IC50: 5.45 µM
Second compound 0.316 µM
  IC50: 5.38 µM
Second compound 1 µM
  IC50: 6 µM
Second compound 3.16 µM
  IC50: 6.06 µM
Second compound 10 µM
  IC50: 4.95 µM
[5]
  viability, T/C: 90.8%
[6]
  viability, T/C: 87.2%
[37]
  viability, T/C: 97.2%
[38]
  viability, T/C: 84.1%
[39]
  viability, T/C: 92.3%
[40]
  viability, T/C: 12.2%
[11]
  viability, T/C: 98.7%
[12]
  viability, T/C: 81.3%
[41]
  viability, T/C: 95%
[42]
  viability, T/C: 91.4%
[43]
  viability, T/C: 83.3%
[44]
  viability, T/C: 12.8%
[17]
  viability, T/C: 87.4%
[18]
  viability, T/C: 89.1%
[45]
  viability, T/C: 103%
[46]
  viability, T/C: 101%
[47]
  viability, T/C: 83.2%
[48]
  viability, T/C: 11.3%
[23]
  viability, T/C: 95.1%
[24]
  viability, T/C: 107%
[49]
  viability, T/C: 106%
[50]
  viability, T/C: 105%
[51]
  viability, T/C: 97.7%
[52]
  viability, T/C: 11.9%
[29]
  viability, T/C: 90.9%
[30]
  viability, T/C: 97%
[53]
  viability, T/C: 104%
[54]
  viability, T/C: 121%
[55]
  viability, T/C: 103%
[56]
  viability, T/C: 9.5%
[35]
  viability, T/C: 67.8%
[36]
  viability, T/C: 70.7%
[57]
  viability, T/C: 77.2%
[58]
  viability, T/C: 90.8%
[59]
  viability, T/C: 82.2%
[60]
  viability, T/C: 6.77%

## CNC(=O)c1ccc(N2C(=S)N(c3ccc(C#N)c(C(F)(F)F)c3)C(=O)C2(C)C)cc1F + CC(Nc1ncnc2nc[nH]c12)c1cc2cccc(Cl)c2c(=O)n1-c1ccccc1
Second compound 0.0316 µM
  IC50: > 10 µM
Second compound 0.1 µM
  IC50: > 10 µM
Second compound 0.316 µM
  IC50: > 10 µM
Second compound 1 µM
  IC50: > 10 µM
Second compound 3.16 µM
  IC50: > 10 µM
Second compound 10 µM
  IC50: 4.88 µM
[5]
  viability, T/C: 91.6%
[6]
  viability, T/C: 78.6%
[37]
  viability, T/C: 80.1%
[38]
  viability, T/C: 86.4%
[39]
  viability, T/C: 86.1%
[40]
  viability, T/C: 71.2%
[11]
  viability, T/C: 88.8%
[12]
  viability, T/C: 85.9%
[41]
  viability, T/C: 78.5%
[42]
  viability, T/C: 85.6%
[43]
  viability, T/C: 83.3%
[44]
  viability, T/C: 69.8%
[17]
  viability, T/C: 92.1%
[18]
  viability, T/C: 93.3%
[45]
  viability, T/C: 85.3%
[46]
  viability, T/C: 92.4%
[47]
  viability, T/C: 77%
[48]
  viability, T/C: 69.9%
[23]
  viability, T/C: 89.9%
[24]
  viability, T/C: 100%
[49]
  viability, T/C: 85.2%
[50]
  viability, T/C: 86.9%
[51]
  viability, T/C: 93.1%
[52]
  viability, T/C: 70.7%
[29]
  viability, T/C: 87.2%
[30]
  viability, T/C: 85.9%
[53]
  viability, T/C: 83.7%
[54]
  viability, T/C: 80.1%
[55]
  viability, T/C: 80.9%
[56]
  viability, T/C: 64.5%
[35]
  viability, T/C: 61.4%
[36]
  viability, T/C: 58.2%
[57]
  viability, T/C: 60.4%
[58]
  viability, T/C: 57.2%
[59]
  viability, T/C: 54%
[60]
  viability, T/C: 43.7%
